Experimental findings from patent US20220257698A1, “ANGIOTENSIN TYPE 2 (AT2) RECEPTOR AGONISTS FOR USE IN THE TREATMENT OF CANCER” (LANTHIOPEP B.V., priority 2019, published 2022) are described below.

This assay deals with U87MG glioblastoma CDX. Kind of assay: Subcutaneous U87MG glioblastoma CDX: tumor weight and time of tumor progression. The assay is classed as in vivo, cd1 nu/nu mice (human GBM cell line). The settings on record: for tumor weight [%]: relative to vehicle = 100. As for the experimental part:
Effects of KcAng(1-7) were evaluated in vivo in a subcutaneous GBM xenograft model in nude mice. Insurgence of neurologic phenomena and differences in the survival rates were evaluated. Human GBM cell lines U87MG and U251MG were used. Cell lines were grown in DMEM nutrient mixture supplemented with 10% fetal bovine serum, 1% penicillin/streptomycin, and 25 mM HEPES buffer. All cell lines were cultured at 37° C. in a humidified atmosphere consisting of 5% CO2 and 95% air. Medium was changed every 2 days and the cell morphology was evaluated under microscope daily.
Six-week-old male athymic nude mice (age 5-7 weeks) were housed with free access to food and water in a temperature-controlled room. Each group is represented by 10 xenograft cd1 nu/nu mice. The mice were injected s.c. in the right distal hind limb with one million of cultured human tumor cell lines suspended in 0.15 mL of 2:1 solution of PBS/Matrigel (Matrigel BD Biosciences). Xenografts were measured every four days with a digital caliper in two perpendicular dimensions. Tumor volume was calculated according to the following formula:
Tumor volume=(tumor width)×(tumor width)×(tumor length)÷2
At the end of experiments, mice were euthanized and tumors removed. Weight loss or other signs of distress such as hunched posture were checked during and after treatments.
Efficacy of treatment was evaluated by: (1) the size of tumors (vehicle control and treated), (2) the relative weight at the end of experiment, and (3) the indirect evaluation of angiogenesis by determining hemoglobin levels.
In vivo tumor response to treatment was evaluated using the following parameters: (i) Complete response (CR): defined as the disappearance of a measurable lesion, (ii) Partial response (PR): defined as a reduction of greater than 50% of the sum of the products of the cross-sectional diameters of the measurable lesion, (iii) Stable disease (SD): defined as a reduction of less than 50% or an increase of less than 25% in the sum of the products of the cross-sectional diameters of the measurable lesions, (iv) Tumor progression (TP): defined as an increase of greater than […] in the sum of the products of the cross-sectional diameters of the measured lesion, (v) Time to progression (TTP) defining the tumor growth delay. Tumor progression was calculated through the analysis of bioluminescence imaging (BLI) photon counts and when possible through the analyses of tumor volumes calculated by magnetic resonance imaging (MRI), (vi) Disease free survival (DFS) is the time elapsed between the time point at which no luciferase activity is detectable anymore and the death of the animal, (vii) Overall survival (OS) is the time elapsed between tumor inoculation and death of the animal. […] Luciferase transfected cells were used for bioluminescence evaluations.
Data are presented as mean and standard error of the mean (SEM) or standard deviation (SD). Statistical comparisons between control and treated groups were established by carrying out the Kruskal-Wallis test (a nonparametric one-way analysis of variance) or the Mann-Whitney test (in the case of two groups). The level of significance was corrected by multiplying the P value by the number of comparisons performed (n) according to […] correction. TP, TTP and DFS were analyzed by Kaplan-Meier curves and Gehan's generalized Wilcoxon test. All statistical analyses were undertaken using SPSS 10.0.
Mice with U87MG cell CDX were randomized at day 0. KcAng(1-7) was injected daily subcutaneously (0.2 μg/kg) starting at day 0 until the (ethical) endpoint maximally at day 42. TMZ was administered at 16 mg/kg during 5 consecutive days, that is from […]. Volumetric evaluation of the tumor was performed every 4 days and tumor weight was measured at the end of the experiment.
Synergism was determined using the methods described in Clarke et al. Breast Cancer Research and Treatment 46:255-278 (1997).
Mice with U87MG cell CDX were randomized at day 0. […]

Turning to “Lys-Asp-Arg-Val-Abu/Ala-Ile-His-Abu/Ala (KDRVAIHA; not fully specified; cyclic thioether (Abu/Ala bridge); VARIANT (5)..(5) /replace=“Abu”; VARIANT (8)..(8) /replace=“Abu”; SITE (1)..(8) /note=“Variant residues given in the sequence have no preference with respect to those in the annotations for variant positions”) [KcAng(1-7)]”, the “Time of tumor progression - TTP, mean (days ± SD)” value (KcAng(1-7) 0.2 μg/kg/d s.c., TMZ 16 mg/kg for 5 days, or both) was found to be 12.80 ± 0.54 days. Also, the “increase of the time of tumor progression” value (KcAng(1-7) 0.2 μg/kg/d vs vehicle) is recorded as “approximately 2 days”. Further, the “Time of tumor progression - TTP, mean (days ± SEM)” value (KcAng(1-7) 1 μg/kg/d s.c., Losartan 20 mg/kg/d i.p., or both) was 15.2 ± 0.9 days. In addition, the “Tumor weight, mean (mg ± SEM)” value (KcAng(1-7) 1 μg/kg/d s.c., Losartan 20 mg/kg/day i.p., or both) is listed as 580 ± 27 mg. For the same substance, the “Tumor weight, mean (mg ± SD)” value (end of experiment, KcAng(1-7) 0.2 μg/kg/d s.c., TMZ 16 mg/kg for 5 days, or both) was found to be 830 ± 57 mg. The “tumor weight [%]” value by setting is: (KcAng(1-7) 0.2 μg/kg/d, TMZ 16 mg/kg, or both) 79.8%; (KcAng(1-7) 1 μg/kg/d, Losartan 20 mg/kg/d, or both) 55.8%.
